Data set [1] in a line: Acute toxicity, i.v., rat. To be noted: in vivo, iv, Ratte, read-out: LD₅₀ i.v. The source says: (§1) Die erfindungsgemäß einsetzten Verbindungen sind gut verträglich. So weist beispielsweise die Verbindung A folgende akute Toxizitäten auf: […]
Data set [2] in a line: Acute toxicity, p.o., mouse. To be noted: in vivo, po, Maus, read-out: LD₅₀ p.o.
Text: as §1

In the case of `CC1CC(=O)NN=C1c1ccc2nc(-c3ccc(O)cc3)[nH]c2c1` (stereo not drawn) [Verbindung B, 2-(4-Hydroxyphenyl)-5-(5-methyl-3-oxo-4,5-dihydro-2H-6-pyridazinyl)-benzimidazol], in data set [1], the LD50 was above 100 mg/kg.
For the compound `COc1ccc(-c2nc3ccc(C4=NNC(=O)CC4C)cc3[nH]2)cc1` (stereo not drawn) [Verbindung A, 2-(4-Methoxyphenyl)-5-(5-methyl-3-oxo-4,5-dihydro-2H-6-pyridazinyl)-benzimidazol], the LD50 is 600 mg/kg in data set [2] and 72 mg/kg in data set [1].
